According to ChEMBL document CHEMBL1201862, “PubChem BioAssay data set” (2004):
Active and inactive are the calls of the source.

How the values were obtained:
[1] = growth suppression of PTEN-null colon cells, dose response, cell-based, HCT116 PTEN knockout (AID 1047); type: functional;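 also: HCT116 colon tumor cells with PTEN knocked out; cells exposed to compound for 60 hours before readout; potency for loss of cell viability measured by luminescence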
[2] = molecular target: T1, Sentrin-specific protease 8 (Homo sapiens, UniProt Q96LD8); type: functional
T1 sequence (Q96LD8 whole entry): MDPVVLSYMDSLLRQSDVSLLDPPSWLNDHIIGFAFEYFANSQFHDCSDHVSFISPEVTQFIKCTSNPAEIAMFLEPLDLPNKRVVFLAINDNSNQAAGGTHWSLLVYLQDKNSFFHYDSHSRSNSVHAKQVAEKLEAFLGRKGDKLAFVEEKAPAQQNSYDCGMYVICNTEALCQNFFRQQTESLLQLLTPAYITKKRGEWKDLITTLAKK

[3] = inhibitors of intracellular T. cruzi replication, confirmation, NIH3T3 host cells, beta-gal luminescence (AID 2044); type: functional, cell-based;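 also: intracellular parasites grown in NIH/3T3 mouse fibroblasts as host cells; luminescent beta-galactosidase reporter signal from transgenic T. cruzi replicating inside host cells; inhibitors lower the luminescence signal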
[4] = molecular target: T1, Sentrin-specific protease 8; type: functional; remark: listed apart in the source
[5] = growth suppression of beta-catenin-knockout colon cells, dose response, cell-based, HCT116, human colon tumor (AID 1045); type: functional;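 also: HCT116 colon tumor cells with beta catenin knocked out; cells exposed to compound for 60 hours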
[6] = cytotoxicity toward NIH3T3 fibroblasts, dose response, counter-screen, cell-based, ATP luminescence, mouse fibroblasts (AID 2010); type: functional;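 also: cells exposed to compound for about 90 hours before reading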
[7] = A cytotoxicity screen of small molecule inhibitors of the PhoP region in Salmonella typhi identified in the primary screen. [Related pubchem assays: 1850, 1864, 1985 ]; type: functional
[8] = A Cell Based Secondary Assay To Explore Cytotoxicity of Compounds that Sensitize Mycobacterium Tuberculosis to Beta-Lactam Antibiotics.; type: functional
Estrogen receptor = molecular target: T2, Estrogen receptor (Homo sapiens, UniProt P03372);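 also: potency for inhibiting coactivator peptide recruitment to the receptor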
T2 sequence (P03372 whole entry): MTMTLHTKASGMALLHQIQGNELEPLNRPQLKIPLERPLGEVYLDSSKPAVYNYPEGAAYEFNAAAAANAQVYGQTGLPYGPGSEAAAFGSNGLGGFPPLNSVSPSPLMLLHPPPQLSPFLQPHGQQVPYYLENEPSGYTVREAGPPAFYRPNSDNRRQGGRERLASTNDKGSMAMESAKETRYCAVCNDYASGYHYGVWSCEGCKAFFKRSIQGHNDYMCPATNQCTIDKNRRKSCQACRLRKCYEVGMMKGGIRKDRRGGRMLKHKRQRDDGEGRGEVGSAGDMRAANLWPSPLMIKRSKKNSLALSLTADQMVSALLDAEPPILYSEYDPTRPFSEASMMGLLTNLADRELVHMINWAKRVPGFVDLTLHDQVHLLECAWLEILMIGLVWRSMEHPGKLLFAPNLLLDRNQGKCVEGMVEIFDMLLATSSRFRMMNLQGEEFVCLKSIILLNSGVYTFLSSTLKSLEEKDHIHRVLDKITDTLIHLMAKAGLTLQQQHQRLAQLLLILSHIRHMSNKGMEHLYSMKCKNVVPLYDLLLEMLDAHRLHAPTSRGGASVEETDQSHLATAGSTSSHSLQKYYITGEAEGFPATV

Cytochrome P450 3A4 = Cytochrome P450 3A4 (Homo sapiens, UniProt P08684); conditions: Potency;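 also: confirmatory qHTS run detecting inhibitors and substrates of CYP3A4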
Chain of Cytochrome P450 3A4 (P08684 whole entry): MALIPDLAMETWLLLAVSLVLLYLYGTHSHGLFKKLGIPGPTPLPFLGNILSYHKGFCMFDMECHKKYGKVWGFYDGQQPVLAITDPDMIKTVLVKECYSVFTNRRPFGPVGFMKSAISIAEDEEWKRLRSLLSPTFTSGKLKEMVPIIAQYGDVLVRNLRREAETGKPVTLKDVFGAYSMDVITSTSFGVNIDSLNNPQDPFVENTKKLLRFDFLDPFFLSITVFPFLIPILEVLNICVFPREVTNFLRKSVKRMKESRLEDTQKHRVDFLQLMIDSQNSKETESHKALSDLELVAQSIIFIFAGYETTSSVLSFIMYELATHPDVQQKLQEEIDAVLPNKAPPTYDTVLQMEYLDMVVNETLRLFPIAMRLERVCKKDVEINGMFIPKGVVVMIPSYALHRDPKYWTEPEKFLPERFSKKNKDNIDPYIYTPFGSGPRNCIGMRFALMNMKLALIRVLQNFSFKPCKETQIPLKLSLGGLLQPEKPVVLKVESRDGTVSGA

[9] = Luminescence-based counterscreen assay for KLF5 inhibitors: dose response cell-based high throughput screening assay to identify cytotoxic compounds using the IEC-6 intestinal epithelial cell line. [Related pubchem assays: 1700 (Primary screen.), 1834 (Confirmation screen.), 1858 (Summary AID.), 1905 (Counterscreen.)]; type: functional
[10] = inhibitors of HIV Env-driven cell fusion, dose response, cherry-pick (AID 652057); type: functional, cell-based
[11] = non-specific cell cytotoxicity, dose response, cytotoxicity control for PAX8 inhibitor project, plate reader, dry powder samples (AID 743021); type: functional, cell-based
[12] = ZM109 Env clade C HIV-1 fusion inhibitors, dose response, HeLa effector, CEM target cells, luciferase, cherry-pick (AID 652058); type: functional, cell-based
Paired box protein Pax-8 = Paired box protein Pax-8 (Homo sapiens, UniProt Q06710); test: inhibitors of PAX8-driven TPO luciferase reporter, dose response, RMG-I cells, cherry-pick (AID 687027); type: functional, cell-based;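 also: luciferase reporter driven by Pax8 target thyroperoxidase promoter measured by SteadyGlo luminescence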
Chain of Paired box protein Pax-8 (Q06710 whole entry): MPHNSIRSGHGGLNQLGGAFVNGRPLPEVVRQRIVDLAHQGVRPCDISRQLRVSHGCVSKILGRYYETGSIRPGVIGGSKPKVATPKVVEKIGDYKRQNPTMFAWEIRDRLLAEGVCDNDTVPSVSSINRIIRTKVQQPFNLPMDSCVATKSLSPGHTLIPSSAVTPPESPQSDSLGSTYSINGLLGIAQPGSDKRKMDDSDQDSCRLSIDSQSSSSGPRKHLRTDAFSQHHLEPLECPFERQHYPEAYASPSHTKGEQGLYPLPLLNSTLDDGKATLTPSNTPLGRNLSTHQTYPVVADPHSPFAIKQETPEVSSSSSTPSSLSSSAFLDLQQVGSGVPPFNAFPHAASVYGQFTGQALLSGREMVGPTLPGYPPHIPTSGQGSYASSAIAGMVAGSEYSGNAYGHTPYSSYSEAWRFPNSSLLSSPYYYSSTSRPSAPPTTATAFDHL

[13] = molecular target: T3, Heat shock factor protein 1 (Mus musculus, UniProt P38532); test: inhibition of MG132-induced HSE-luciferase signal, confirmation, cell-based, NIH3T3, luminescence, dose retest (AID 2382); type: functional;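 also: NIH3T3 fibroblasts with HSF1-driven luciferase reporter stressed by proteasome inhibitor MG132; luminescence from HSF1-driven luciferase expression after 8 hours of MG132 stress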
T3 sequence (P38532 whole entry): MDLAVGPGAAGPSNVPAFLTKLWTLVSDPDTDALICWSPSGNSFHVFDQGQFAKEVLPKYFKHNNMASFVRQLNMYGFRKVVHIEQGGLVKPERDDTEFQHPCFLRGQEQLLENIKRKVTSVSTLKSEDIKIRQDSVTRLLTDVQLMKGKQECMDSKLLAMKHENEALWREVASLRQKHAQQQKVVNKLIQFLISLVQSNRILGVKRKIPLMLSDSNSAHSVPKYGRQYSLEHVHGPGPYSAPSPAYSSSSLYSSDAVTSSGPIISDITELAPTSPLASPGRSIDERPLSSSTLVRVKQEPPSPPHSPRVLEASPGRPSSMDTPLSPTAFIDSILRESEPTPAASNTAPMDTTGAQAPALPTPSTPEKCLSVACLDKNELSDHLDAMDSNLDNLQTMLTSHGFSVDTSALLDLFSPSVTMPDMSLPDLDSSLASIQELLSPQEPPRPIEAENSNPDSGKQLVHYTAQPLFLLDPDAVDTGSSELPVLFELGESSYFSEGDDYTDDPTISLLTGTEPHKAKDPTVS

[14] = inhibitors of clade B AD8 Env fusion, dose response, cell-based, cherry-pick (AID 652062); type: functional;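 also: luciferase signal from cell-cell fusion driven by HIV-1 clade B AD8 Env; potency is for inhibitors of fusion seen as a drop in luminescence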
[15] = off-target signal loss in HeLa-CEM21 co-culture – HeLa F-luc CTL cells, cherry-picked, counter-screen for HIV-1 Env fusion inhibitor project, dose response (AID 652040); type: functional, cell-based;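 also: potency for signal decrease marking cytotoxic or nonspecific inhibition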
[16] = molecular target: ADP-ribosylation factor GTPase-activating protein 1 (Rattus norvegicus, UniProt Q62848); test: Fluorescence polarization-based biochemical high throughput dose response screening assay to identify inhibitors of ADP-ribosylation factor GTPase activating protein 1 (ARFGAP1).; type: functional
Chain of ADP-ribosylation factor GTPase-activating protein 1 (Q62848 whole entry): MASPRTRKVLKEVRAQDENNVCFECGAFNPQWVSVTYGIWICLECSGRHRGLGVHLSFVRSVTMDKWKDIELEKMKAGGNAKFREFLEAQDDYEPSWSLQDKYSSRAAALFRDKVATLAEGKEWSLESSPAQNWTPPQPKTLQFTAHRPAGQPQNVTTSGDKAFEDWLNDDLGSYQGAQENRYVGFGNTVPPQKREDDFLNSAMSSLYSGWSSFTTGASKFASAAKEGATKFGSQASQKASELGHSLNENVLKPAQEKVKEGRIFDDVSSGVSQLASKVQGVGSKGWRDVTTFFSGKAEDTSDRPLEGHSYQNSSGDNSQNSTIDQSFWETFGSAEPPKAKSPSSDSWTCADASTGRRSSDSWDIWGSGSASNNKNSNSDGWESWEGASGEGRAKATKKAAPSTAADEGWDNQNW

Protein RecA = molecular target: T4, Protein RecA (Mycobacterium tuberculosis, UniProt P9WHJ3); test: Fluorescence Cell-Free Homogeneous Dose Retest to Identify Inhibitors of RecA-Intein Splicing Activity. [Related pubchem assays (depositor defined):AID2097, AID2223, AID489010, AID492950]; type: functional
T4 sequence (P9WHJ3 whole entry): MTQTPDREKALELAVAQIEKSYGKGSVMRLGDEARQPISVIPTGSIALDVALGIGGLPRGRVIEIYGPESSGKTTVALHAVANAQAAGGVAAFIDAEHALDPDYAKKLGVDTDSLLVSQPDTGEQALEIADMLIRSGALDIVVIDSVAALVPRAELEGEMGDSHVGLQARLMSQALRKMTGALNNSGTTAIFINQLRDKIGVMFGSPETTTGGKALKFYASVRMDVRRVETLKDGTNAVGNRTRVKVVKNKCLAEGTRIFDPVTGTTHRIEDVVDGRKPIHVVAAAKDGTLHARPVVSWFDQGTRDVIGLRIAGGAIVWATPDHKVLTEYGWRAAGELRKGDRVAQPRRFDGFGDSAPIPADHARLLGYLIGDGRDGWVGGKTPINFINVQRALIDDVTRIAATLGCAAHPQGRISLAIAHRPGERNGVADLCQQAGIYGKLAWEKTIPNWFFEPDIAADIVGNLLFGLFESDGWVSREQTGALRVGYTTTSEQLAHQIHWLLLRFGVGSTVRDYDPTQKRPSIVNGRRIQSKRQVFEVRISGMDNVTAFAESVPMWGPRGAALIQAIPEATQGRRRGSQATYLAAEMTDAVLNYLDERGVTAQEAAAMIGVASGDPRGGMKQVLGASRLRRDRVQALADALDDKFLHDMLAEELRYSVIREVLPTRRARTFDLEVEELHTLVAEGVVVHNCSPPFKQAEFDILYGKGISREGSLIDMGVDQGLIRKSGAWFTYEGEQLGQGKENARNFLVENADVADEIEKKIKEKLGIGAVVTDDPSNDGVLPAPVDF

[17] = molecular target: T5, Replicative DNA helicase DnaB (Mycobacterium tuberculosis, UniProt P9WMR3); test: DnaB intein splicing inhibitors, dose response, biochemical, cell-free fluorescence (AID 449749); type: functional
T5 sequence (P9WMR3 whole entry): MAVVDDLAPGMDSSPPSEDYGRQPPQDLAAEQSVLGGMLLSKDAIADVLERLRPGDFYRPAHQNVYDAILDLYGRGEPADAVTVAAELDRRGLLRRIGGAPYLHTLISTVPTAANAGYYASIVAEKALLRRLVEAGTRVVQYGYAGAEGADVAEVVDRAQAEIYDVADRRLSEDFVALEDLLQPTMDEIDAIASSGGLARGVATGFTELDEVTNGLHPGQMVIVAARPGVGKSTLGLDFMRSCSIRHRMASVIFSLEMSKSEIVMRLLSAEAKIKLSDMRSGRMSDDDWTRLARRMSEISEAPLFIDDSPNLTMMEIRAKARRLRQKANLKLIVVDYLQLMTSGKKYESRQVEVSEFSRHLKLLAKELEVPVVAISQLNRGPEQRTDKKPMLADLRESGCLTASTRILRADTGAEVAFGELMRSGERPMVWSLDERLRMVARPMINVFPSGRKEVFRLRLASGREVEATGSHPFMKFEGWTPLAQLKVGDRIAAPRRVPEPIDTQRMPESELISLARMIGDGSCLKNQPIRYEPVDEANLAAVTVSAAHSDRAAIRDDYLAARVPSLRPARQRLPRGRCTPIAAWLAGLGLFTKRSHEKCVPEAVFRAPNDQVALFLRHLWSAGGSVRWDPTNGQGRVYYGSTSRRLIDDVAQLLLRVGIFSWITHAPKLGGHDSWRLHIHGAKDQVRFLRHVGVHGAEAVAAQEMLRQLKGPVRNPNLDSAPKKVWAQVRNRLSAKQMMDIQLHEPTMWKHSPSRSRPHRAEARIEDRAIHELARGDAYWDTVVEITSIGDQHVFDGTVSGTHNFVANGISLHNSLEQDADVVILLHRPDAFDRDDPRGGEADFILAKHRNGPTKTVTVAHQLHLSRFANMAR

[18] = Fluorescence-based cell-based high throughput dose response assay for inhibitors of the interaction of nucleotide-binding oligomerization domain containing 2 (NOD2) and the receptor-interacting serine-threonine kinase 2 (RIPK2).; type: functional; conditions: Homo sapiens
[19] = Luminescence Cell-Based Dose Confirmation to Identify Activators of 5'UTR Stem-Loop Driven Alpha-Synuclein mRNA Translation in H4 Neuroglioblastoma Cells. [Related pubchem assays: 1829 (Project Summary), 1814 (Primary HTS)]; type: functional
H4 = test: Luminescence Cell-Based Dose Response HTS to Identify Activators of 5'UTR Stem-Loop Driven Prion Protein mRNA Translation in H4 Neuroglioblastoma Cells. [Related pubchem assays: 1829 (Project Summary), 1814 (Primary HTS)]; type: functional; conditions: Homo sapiens
[20] = Luminescence Cell-Based Dose Response to Identify Activators of Luciferase Translation or Activity in H4-C Neuroglioblastoma Cells. [Related pubchem assays: 1829 (Project Summary), 1814 (Primary HTS)]; type: functional
[21] = Luminescence Cell-Based Dose Response to Identify Activators of 5'UTR Stem-Loop Driven Prion Protein mRNA Translation in H4-C Neuroglioblastoma Cells. [Related pubchem assays: 1829 (Project Summary), 1814 (Primary HTS)]; type: functional
[22] = Luminescence Cell-Based Dose Response HTS to Identify Activators of Luciferase Translation or Activity in H4 […] Cells. [Related pubchem assays: 1829 (Project Summary), 1814 (Primary HTS)]; type: functional

Cc1ccc(/C=N/c2ccc(N(C)C)cc2)o1
EC50 [1]: 42.3 µM (active) | IC50 [2]: > 100 µM (inactive) | EC50 [3]: 1.12 µM (active) | IC50 [4]: 18.1 µM (active) | EC50 [5]: 58 µM (active) | EC50 [6]: > 60 µM (not active)

O=S1(=O)NC2c3ccccc3CC2O1 (stereo not drawn)
IC50 [2]: 19.5 µM (active) | IC50 [4]: 9.78 µM (active)

O=C(c1ccc2c3c(cccc13)CC2)C1CCCN(Cc2ncc[nH]2)C1 (stereo not drawn)
EC50 [7]: > 50 µM (active)

CCSc1nnc(NC(=O)C2Cc3ccccc3CN2C(=O)c2ccco2)s1 (stereo not drawn)
CC50 [8]: > 40 µM (active) | IC50 (Estrogen receptor): 7.47 µM (active)

COC(=O)N1[C@H](C)C=C[C@]1(Cc1ccccc1)C(=O)NCc1ccccn1
AC50 (Cytochrome P450 3A4): 3.98 µM (inconclusive)

O=C(COC(=O)CCOc1ccccc1)NCc1ccco1
IC50 (Estrogen receptor): 16.6 µM (active)

O=C(/C=C/c1c(F)cccc1Cl)N1CCOCC1
EC50 [7]: > 50 µM (active)

COc1cc(/C=N/O)ccc1OCc1ccc(C(=O)O)cc1
IC50 [9]: > 39.8 µM (not active) | AC50 [10]: 0.351 µM (active) | AC50 [11]: 25.6 µM (active) | AC50 [12]: 6.61 µM (active) | AC50 (Paired box protein Pax-8): 5.79 µM (active) | EC50 [13]: 1.78 µM (active) | AC50 [14]: 1.49 µM (active) | AC50 [15]: 0.82 µM (active)

N#Cc1c(NC(=O)C2CC(c3c(F)cccc3Cl)=NO2)sc2c1CCC2 (stereo not drawn)
IC50 [16]: 43.6 µM (inactive)

Cc1onc(-c2ccccc2Cl)c1C(=O)NCc1cccnc1
IC50 (Estrogen receptor): > 50 µM (not active)

O=C(Nc1ccc(F)cc1)c1nn(-c2ccccc2)c(=O)cc1Cl
EC50 (Protein RecA): 8.71 µM (active) | AC50 [17]: 11.9 µM (active) | IC50 [18]: 4.16 µM (active)

O=C(C[C@H]1C[C@@H]2c3cc(NC(=O)C4CCOCC4)ccc3O[C@@H]2[C@@H](CO)O1)NCc1ccc(Oc2ccccc2)cc1
AC50 [11]: 65.1 µM (active)

Cc1ccc2nc(SCC(=O)N3CCCC3)nc(=O)n2c1
IC50 [16]: 45.2 µM (inactive)

O=C(COC(=O)CC1CCCC1)Nc1cc2c(cc1Cl)C(=O)c1ccccc1C2=O
EC50 [19]: 0.497 µM (active) | EC50 (H4): 21.7 µM (active) | EC50 [20]: 0.438 µM (active) | EC50 [21]: 2.27 µM (active) | EC50 [22]: < 0.1 µM (inconclusive) | IC50 (Estrogen receptor): 22.3 µM (active)

COc1ccc(N(CCCN2C(=O)c3cccc4cccc(c34)C2=O)C(=O)c2cccnc2)cc1
EC50 [3]: 0.666 µM (active) | EC50 [7]: > 50 µM (active) | EC50 [6]: > 60 µM (not active)

CCn1cnc2cc(NCc3ccc(Br)cc3)ccc21
EC50 [7]: > 50 µM (active)

C=C1CCC2C(CC2(C)C)C(=C)CC/C1=N/O (stereo not drawn) [5-HYDROXYIMINOISOCARYOPHYLLENE]
AC50 (Cytochrome P450 3A4): 31.6 µM (inconclusive)

O=C(CN1CCCN(Cc2ccc(F)cc2Cl)C1=O)NC1CCCCCCC1
AC50 [10]: 30.1 µM (active) | AC50 [14]: 44.3 µM (active) | AC50 [15]: > 70 µM (inactive)
